Assay results: patent US20070292967A1, “Assay for Ligands of the Ecdysone Receptor” (COMMONWEALTH SCIENTIFIC AND INDUSTRIAL RESEARCH OR, priority 2003, published 2007)
Values joined by “and” are separate entries in the source; they are usually repeats but may differ in a detail not shown here. Equal values may be shown once.

Legend:
[1] = target: MpLBD, recombinant M. persicae ecdysone receptor (Myzus persicae, UniProt A3EZJ9); assay: manual radioligand-based competitive inhibition assay ([3H]ponasterone A), MpLBD; assay type: binding; conditions: for ability to compete with [3H]ponasterone A / bind to MpLBD (in words): radioligand-based assay
Protocol: The ability of inokosterone and fluorescent conjugates thereof to bind to recombinant M. persicae ecdysone receptor was assessed using the conventional radioligand binding assay in a competetive inhibition format (adapted from Koelle et al., 1991).
These procedures were performed manually, as follows. Assays were performed in EcR40 buffer [25 mM Hepes, 40 mM KCl, 10% glycerol, 1 mM sodium EDTA, 3 mM sodium azide] containing 0.5 mg/ml bovine serum albumin (BSA). An extract containing recombinant M. persicae edcdysone receptor, MpLBD, was prepared as described above and diluted in EcR40 buffer containing 0.5 mg/ml BSA to a concentration that generated filter counts around 10 000 cpm when the assay was done in the absence of competing ligands. […] Assays were set up to contain different final concentrations of fluorescent ecdysteroid by including the appropriate volumes of the relevant stock solutions. […] Each incubation was performed in a final volume of […] at room temperature (22° C.) for 90 min, whereupon it was held on ice until the filter adsorption/wash steps could be performed. Three 140 μl aliquots from each completed incubation were applied to glass microfibre filters (GF/C 24 mm diameter, Whatman, Cat. No. 1822024); i.e., every incubation generated three filters, each of which had been wet using 140 μl of the incubation mixture. After exposure to the liquid for 30 sec at room temperature, the wet filter was transferred to a vacuum sinter apparatus (Pyrex Filter Holder, Millipore Corp., Cat. No. XX1002500) and washed rapidly. Washing was done using 2×5 ml of ice-cold EcR40 buffer, intersperced with 3×0.5 ml buffer applied around the circumference of the filter to ensure that its edges were thoroughly rinsed. The damp filter was then transferred to a scintillation vial. When all the filters had been thus processed, 7 ml Packard InstaGel Plus scintillant was added to each scintillation vial. The sealed vials were vortexed and then incubated at room temperature for at least 2 h, during which time the filters became transparent. The vials were then scintillation counted (1 min per filter, tritium program, Packard TriCarb 2100TR scintillation counter). Datapoints were reported as the mean cpm value ±SEM for the three replicate filters arising from each incubation.
The inhibitor concentration at this midpoint was deemed to be the IC50 value for the inhibitor.

MpLBD [2] = target: T1, MpLBD (Myzus persicae, UniProt A3EZJ9); assay: miniaturized automated radioligand-based competition assay, MpLBD; assay type: binding; conditions: 1.3 nM [3H]ponasterone A, no CHAPS, read-out: Ki from radioligand-based MpLBD assay
T1 sequence (A3EZJ9 70-308): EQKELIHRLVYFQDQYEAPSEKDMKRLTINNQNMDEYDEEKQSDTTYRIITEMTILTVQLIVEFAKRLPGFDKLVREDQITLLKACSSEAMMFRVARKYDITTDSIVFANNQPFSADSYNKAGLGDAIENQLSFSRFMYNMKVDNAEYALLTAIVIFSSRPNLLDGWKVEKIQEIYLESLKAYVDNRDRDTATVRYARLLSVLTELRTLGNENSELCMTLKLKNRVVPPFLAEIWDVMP
T1 sequence (A3EZK0 32-259 partner): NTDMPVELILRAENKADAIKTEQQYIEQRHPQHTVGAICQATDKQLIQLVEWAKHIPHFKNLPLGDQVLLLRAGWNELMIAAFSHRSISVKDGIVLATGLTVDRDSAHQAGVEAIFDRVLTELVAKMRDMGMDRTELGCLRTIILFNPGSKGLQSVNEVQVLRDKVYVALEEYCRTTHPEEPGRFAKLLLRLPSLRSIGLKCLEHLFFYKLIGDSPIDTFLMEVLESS
Protocol: (§1) Subsequently, a miniaturized and automated version of the radioligand-based competition assay was used with MpLBD and BtLBD to obtain Ki values for the non-radioactive, non-fluorescent ecdysteroids that would later be used to validate the competitive inhibition format of the FP assay. While the concept of the assay was unchanged from that described above, some aspects of its execution were different. […] The mixtures were again allowed to reach equilibrium, but this time for 4 h at room temperature. The MpLBD was then captured on a 96-filter array (Unifilter-96 GF/C, Packard, Cat. No. 6005174) and rinsed using the wash tool and vacuum block of the Biomek 2000. The back of each filter-plate was then manually sealed using a sheet of Packard BackSeal, and 25 μl Packard MicroScint-20 scintillation fluid was dispensed into each well. The top of each plate was sealed with Packard TopSeal-A and the filters were allowed to solvate overnight. […] Since the amount of bound radioactivity was at most 28% of the total present, no additional corrections for ligand depletion were applied.

BtLBD [3] = target: T2, BtLBD (Bemisia tabaci, UniProt A0A142K0N3); assay: miniaturized automated radioligand-based competition assay, BtLBD; assay type: binding; conditions: 1.3 nM [3H]ponasterone A, no CHAPS, read-out: Ki from radioligand-based BtLBD assay
Protocol: as §1

MpLBD [4] = target: T1, MpLBD; assay: FP competitive inhibition assay with MB4628 tracer, MpLBD; assay type: binding; conditions: 5 nM functional MpLBD, 36 nM MB4628, no CHAPS, Cheng-Prusoff; read-out: FP-derived Ki, MpLBD
Protocol: (§2) For competitive inhibition assays, each well contained standard FP assay buffer containing 36 nM MB4628 and either 5 nM functional MpLBD or 6 nM functional BtLBD. The BtLBD assays, but not the MpLBD ones, were routinely done in the presence of 2 mM CHAPS. The final volume of all assays were 250 μl.
(§3) The inhibitor concentration at this midpoint was deemed to be the IC50 value for the inhibitor. IC50 values were converted to Ki values using the Cheng-Prusoff equation (Cheng & Prusoff, 1973), as follows: Ki=IC50/(1+([MB4628]tot/Kd)) where [MB-4628]tot is the total concentration of MB4628 in the assay, and Kd is the dissociation constant for MB4628 with the relevant receptor under the conditions of the assay. The Kd values for use in this equation were calculated from the basic FP titration curves (FIG. 3) using the knowledge that the receptor concentration at the titration midpoint is the value at which the receptor is half-saturated with MB4628. The Kd is the free MB4628 concentration at this point, and must therefore be: Kd=[MB4628]tot−([receptor]midpoint)/2

BtLBD [5] = target: T2, BtLBD; assay: FP competitive inhibition assay with MB4628 tracer, BtLBD; assay type: binding; conditions: 6 nM functional BtLBD, 36 nM MB4628, 2 mM CHAPS, Cheng-Prusoff; read-out: FP-derived Ki, BtLBD
Protocol: as §2, §3

MpLBD [6] = target: T1, MpLBD; assay: FP titration of MB4628 with MpLBD; assay type: binding
Protocol: (§4) The standard FP assay buffer was 50 mM sodium phosphate, 100 mM NaCl, pH 7.4, containing 0.5 mg/ml bovine serum albumin. When required, preparative pipetting steps (such as dilution series) were typically done in conventional V-bottomed 96-well microplates (e.g. V-bottomed polypropylene, Greiner Bio-One, Cat. No. 651201). The assays themselves were set up in opaque black flat-bottomed 96-well plates designed for fluorescence measurements (e.g. Nunc, Cat. No. 237108). The final volume of all assays was 250 μl. The FP plate-reader was a POLARstar Optima (Cat. No. 413-201, BMG Labtechnologies, Offenburg, Germany) with fluorescence polarization optics (installed according to the manufacturer's instructions) and operated by FLUOstar Optima software in Plate Mode (Polarization). Excitation was done at 485 nm (filter 485) and emission was detected at 520 nm (filter 520p). The standard instrument setup involved a 3 sec/3 mm shake for the plate prior to commencing reading; readings used 200 flashes/assay. Gain values were typically around 3000 for each channel, with a K-factor close or equal to 1.0.
(§5) A 250 μl sample of 30 nM fluorescein in 50 mM sodium phosphate, 100 mM NaCl, pH 7.4, was known to have a polarization value of 35 mP and was used to calibrate the FP plate-reader.
Receptor LBD titrations involved mixing a small volume (e.g. 2.5 μl) of diluted receptor LBD heterodimer stock with a larger volume (e.g. 247.5 μl) of standard FP assay buffer containing 36 nM MB4628. Where indicated, CHAPS was present at a final concentration of 2 mM. […] The assay mixtures were allowed to reach equilibrium, typically by incubating overnight at 4° C. and then equilibrating at room temperature (20° C.) for 2-4 h before reading the mP values. […]
The inhibitor concentration at this midpoint was deemed to be the IC50 value for the inhibitor. […] The Kd values for use in this equation were calculated from the basic FP titration curves (FIG. 3) using the knowledge that the receptor concentration at the titration midpoint is the value at which the receptor is half-saturated with MB4628. […]

BtLBD [7] = target: T2, BtLBD; assay: FP titration of MB4628 with BtLBD; assay type: binding; conditions: for Kd: 36 nM MB4628
Protocol: as §4, §5
Receptor LBD titrations involved mixing a small volume (e.g. 2.5 μl) of diluted receptor LBD heterodimer stock with a larger volume (e.g. 247.5 μl) of standard FP assay buffer containing 36 nM MB4628. Where indicated, CHAPS was present at a final concentration of 2 mM. Receptor dilutions were typically arranged to cover a wide concentration range, e.g. 0.005-50 nM functional receptor. The assay mixtures were allowed to reach equilibrium, typically by incubating overnight at 4° C. and then equilibrating at room temperature (20° C.) for 2-4 h before reading the mP values. When plotting the data, smooth curves were drawn for the FP titrations using a Flexicurve; these represent a more realistic fit to the data than the linear point-to-point plots shown (for convenience of printing) in FIG. 3.
as §3
The effect of omitting CHAPS from BtLBD competitive inhibition assays was tested directly. Thus, in a BtLBD experiment that departed from standard procedure, 10 nM functional BtLBD was incubated with 36 nM MB4628 and increasing concentrations of non-fluorescent ecdysteroids, but without CHAPS.

LcLBD = assay: FP titration of MB4628 with LcLBD; assay type: binding, Lucilia cuprina; conditions: 36 nM MB4628, no CHAPS
Protocol: as §4, with “Gain values were typically around 3000 for each channel, with a K-factor close or equal to 1.0.” left out
(§6) A 250 μl sample of 30 nM fluorescein in 50 mM sodium phosphate, 100 mM NaCl, pH 7.4, was known to have a polarization value of 35 mP and was used to calibrate the FP plate-reader. […] Thereafter, at the commencement of each experimental session, the FP plate-reader was adjusted to give a reading of 100 mP for a 250 μl sample of 36 nM MB4628 in standard FP assay buffer. […]

HaLBD = assay: FP titration of MB4628 with HaLBD; assay type: binding, Helicoverpa armigera; conditions: 36 nM MB4628, no CHAPS
Protocol: as §4, with “Gain values were typically around 3000 for each channel, with a K-factor close or equal to 1.0.” left out
as §6

Compound	ability to compete with [3H]ponasterone A / bind to MpLBD (in words) [1]	Ki [1] [nM]	Ki (MpLBD [2])	Ki (BtLBD [3]) [nM]	Ki (MpLBD [4]) [nM]	Ki (BtLBD [5]) [nM]	also measured
CC(CC[C@@H](O)C(C)(O)C1CC[C@@]2(O)C3=CC(=O)[C@@H]4C[C@@H](O)[C@@H](O)CC4(C)C3CCC12C)COS(=O)(=O)c1cccc2c(N(C)C)cccc12 (stereo partly drawn) [MB4622]	highly effective ligand	–	–	–	–	–	–
COc1ccc2cc(NC(=O)OCC(C)CC[C@@H](O)C(C)(O)C3CC[C@@]4(O)C5=CC(=O)[C@@H]6C[C@@H](O)[C@@H](O)CC6(C)C5CCC34C)c(=O)oc2c1 (stereo partly drawn) [MB4603]	unimpaired	40	–	–	–	–	–
CC(C)CC[C@@H](O)[C@](C)(O)[C@H]1CC[C@@]2(O)C3=CC(=O)[C@@H]4C[C@@H](O)[C@@H](O)C[C@]4(C)[C@H]3CC[C@]12C [ponasterone A]	–	–	0.28 nM and ~0.3 nM	4.8	1	7.4	–
CC(CCC(O)C(C)(O)C1CCC2(O)C3=CC(=O)C4CC(O)C(O)CC4(C)C3CCC12C)COC(=S)Nc1ccc2c(c1)C(=O)OC21c2ccc(O)cc2Oc2cc(O)ccc21 (stereo not drawn) [MB4628]	unimpaired	40	–	–	–	–	FP titration curve midpoint, MpLBD (MpLBD [6]; 36 nM MB4628, no CHAPS): 1.1-1.8 nM functional receptor; maximum mP value (mPmax), MpLBD (MpLBD [6]; 36 nM MB4628, no CHAPS): 335 mP; Kd (MpLBD [6]; without CHAPS, 36 nM MB4628, read-out: Kd for MB4628 from FP titration curve, MpLBD): 35.3 nM; FP titration midpoint, BtLBD, 2 mM CHAPS (BtLBD [7]; 36 nM MB4628, 2 mM CHAPS, FIG. 3B experiment): 1.5 nM functional BtLBD; FP titration midpoint, BtLBD, CHAPS-free (BtLBD [7]; 36 nM MB4628, CHAPS-free, FIG. 3B experiment): 4.5 nM; mPmax, BtLBD (BtLBD [7]; 36 nM MB4628, no CHAPS): 210-260 mP; FP titration curve midpoint, BtLBD (BtLBD [7]; 36 nM MB4628, no CHAPS (FIG. 3A)): 1 to 5 nM functional receptor; Kd (BtLBD [7]; Kd for MB4628, BtLBD without CHAPS, without CHAPS): 34.7 nM; Kd (BtLBD [7]; Kd for MB4628 from FP titration curve, BtLBD, with 2 mM CHAPS): 35.3 nM; FP titration curve midpoint, LcLBD (LcLBD): 2.5 nM functional receptor; mPmax, LcLBD (LcLBD): 220 mP; FP titration curve midpoint, HaLBD (HaLBD): 3.5 nM functional receptor; mPmax, HaLBD (HaLBD): 230 mP
CCN(CC)c1ccc2cc(NC(=O)OCC(C)CCC(O)C(C)(O)C3CCC4(O)C5=CC(=O)C6CC(O)C(O)CC6(C)C5CCC34C)c(=O)oc2c1 (stereo not drawn) [MB4592]	unimpaired	20	–	–	–	–	–
CC(C)CC[C@@H](O)[C@](C)(O)[C@H]1CC[C@@]2(O)C3=CC(=O)[C@]4(O)C[C@@H](O)[C@@H](O)C[C@]4(C)[C@H]3[C@H](O)C[C@]12C [muristerone A]	–	–	30 nM	5.3	149	27	–
2β,3β,14α,20R,22R,25-hexahydroxy-5β-cholest-7-ene-6-one [20-hydroxyecdysone]	–	–	100 nM	240	1490	994	–
CC(CO)CC[C@@H](O)[C@](C)(O)[C@H]1CC[C@@]2(O)C3=CC(=O)[C@@H]4C[C@@H](O)[C@@H](O)C[C@]4(C)[C@H]3CC[C@]12C (stereo partly drawn) [inokosterone]	–	65	–	–	–	–	–
